Experimental data published in PMC6826616, “Topical 2′-Hydroxyflavanone for Cutaneous Melanoma” (Cancers, 2019).

Key:
[1] = Single dose pharmacokinetic study of 2HF; format: in vivo, Sprague Dawley male rats; settings: male SD rats
Experimental: Figure 7 Plasma concentration vs. time profile of 2HF in rats. Mean plasma concentration vs. time profile of 2HF following intravenous and oral administration of 2HF at 5 mg/kg and 10 mg/kg, respectively, to male SD rats (n = 3).
Pharmacokinetic studies of 2HF were performed by GVK Biosciences Pvt. Ltd., Hyderabad, India in Sprague Dawley male rats (~280 g). Rats were dosed either orally through gastric gavage needle of 10 mg/kg 2HF (0.5% Methyl cellulose + 0.5% Tween80) or intravenous 5 mg/kg 2HF (in 10% DMSO). Then, 200–300 µL blood was collected at each time point and plasma was separated; 50 µL plasma sample was deproteinized with 200 µL of acetonitrile followed by centrifugation at 2000× g for 5 min and supernatant was analyzed for 2HF by LC-MS/MS. Pharmacokinetic parameters were calculated for individual animals by a non-compartmental model with Phoenix software version 8.1 (CERTARA, Princeton, NJ, USA).

B16-F10 cells = test: EGF-pHrodo endocytosis, B16-F10 (microscopy); format: cell-based, mouse; settings: Rlip-antisense, Rlip-shRNA, or 10 µM 2HF for 24 h
Experimental: Figure 3 Effects of Rlip depletion on epidermal growth factor (EGF) endocytosis of mouse melanoma cells. Representative photomicrographs of Rlip-depleted B16-F0 and B16-F10 cells showing the inhibition of EGF-pHrodo endocytosis. […] Rlip was depleted by treating cells with Rlip-antisense, Rlip-shRNA, or 10 µM 2HF for 24 h as described in Materials and Methods section 4.8. Photographs were taken at identical exposures using 200× magnification.
The effect of Rlip knockdown/depletion by shRNA, RLIP76-antisense (R508), or 2HF on endocytosis was studied in B16 melanoma cell lines. The cells were transfected with Rlip shRNA or R508 antisense and their scrambled shRNA and scrambled antisense (CAS) controls as previously described. Briefly, B16 cells were grown in DMEM medium containing 10% FBS on Nunc 4 chamber slides overnight to 70–80% confluence. For RLIP76 knockdown, pSUPER retro puro shRLIP plasmid DNA (8 µg/mL) and RLIP76-antisense (R508; 10 μg/mL final conc.) and their respective controls (scrambled shRNA and CAS) were pre-complexed with Lipofectamine 2000 reagent in Opti-MEM® reduced serum medium for transfection of the cells. Other sets of slides were treated with vehicle (Methanol) or 10 µM 2HF to inhibit Rlip expression. […] Slides were analyzed using a fluorescence microscope (Olympus America, Melville, NY, USA). […]

B16-F0 cells = test: Western blot densitometry of whole-cell lysates, B16-F0; format: cell-based, mouse; settings: 48 h
Experimental: B16-F0, […], and SK-MEL-24 cells were treated for 24 h with vehicle, 50 µM, and 100 µM 2HF. Cells were harvested and lysates prepared for Western blot using a radioimmunoprecipitation assay (RIPA) buffer with a protease (complete ULTRA) and phosphatase inhibitor (PhosSTOP) cocktail (Sigma-Aldrich, St. Louis, MO, USA). Total cell lysates (25 µg/lane) were loaded on 4–12% bis-tris gels, with MES gel running buffer. Proteins were transferred to nitrocellulose membrane, and nonspecific binding was minimized with 1× clear milk blocking buffer +0.1%TWEEN 20 (ThermoFisher Scientific, Waltham, MA, USA) for 1 h at room temperature. All primary antibodies were purchased from Santa Cruz Biotechnology except mouse monoclonal, TNF-α (Invitrogen), (1:1000), in 1× clear milk +0.1% TWEEN 20 overnight at 4 °C. Secondary antibody from Santa Cruz Biotech (1:2000) was incubated for 1 h at room temperature in 1× clear milk, 0.1% TWEEN 20.
Supplemental data for Fig. 2C. Caspase 9
Numbers below of each blot represent protein 1.0 1.2 0.5 ND ND ND ND ND ND band intensity ratios to adequate controls after Procaspase 3 […]
RAL BP- 1 and apoptosis enzymes in SK-Mel-24, B16F0 17kD Active caspase 3 […]
48h. Cells were plated in complete growth medium. After overnight, cells were treated with different doses of 2HF, and PARP-1 incubated for 48h. Total cell lysates (40 µg/lane) were […]
buffer. Proteins were transferred to nitrocellulose C-terminal cleaved membrane, nonspecific binding was done in 1X clear milk, PARP~89kDa
+0.1%T20 (Invitrogen) for 1h at room temperature. All primary antibodies were from (mouse monoclonal, 1.0 0.8 0.9 1.0 0.9 ND 1.0 1.1 ND Santacruze Biotechnology (1:1000), in 1X clear milk
+0.1%T20 overnight in 40C. Secondary antibody from N-terminal cleaved
Santacruze Biotech (1:2000) for 1h at room temperature in PARP~24kDa […]
Supplemental Figure 7 Supplemental data for Fig. 5.
B16F0 SK-Mel- 24 B16F10Numbers below of each blot represent protein band intensity ratios to adequate
TNF-α Full blots are presented in next 4 figures. […]
cells after treatment with 50, 100 µM 2HF for 48h.
Raf-1 Raf-1 Cells were plated in complete growth medium. After overnight, cells were treated with different doses of 2HF, […]
loaded on 4- 12% bis-tris gel, with 1X MES gel running p-MEK-1 p-MEK-1 buffer. Proteins were transferred to nitrocellulose membrane, nonspecific binding was done in 1X clear
All primary antibodies were from (mouse monoclonal, MEKK15 MEKK15 except TNF-α (American Hamster), Santacruze
1.0 0.9 0.1 ND ND ND overnight in 40C. Secondary antibody from Santacruze Biotech (1:2000) for 1h at room temperature in 1X clear […]

With `O=C1CC(c2ccccc2O)Oc2ccccc21` (stereo not drawn) [2HF, 2′-hydroxyflavanone] the oral bioavailability ([1]; 10 mg/kg oral vs 5 mg/kg IV) was “Poor”, the “plasma concentrations orally compared with IV” value ([1]; 10 mg/kg oral vs 5 mg/kg IV) was “two log-order lower” and the clearance ([1]; after either oral or IV administration) was “rapid clearance”. For the same compound, the “EGF-pHrodo endocytosis (fluorescence microscopy)” value (B16-F10 cells) was “completely blocked”, the “Active caspase 3 band intensity ratio to control (normalized against β-Actin)” value (B16-F0 cells; B16F0, 50 µM 2HF) was 0.9 and the “C-terminal cleaved PARP~89kDa band intensity ratio to control (normalized against β-Actin)” value (B16-F0 cells; B16F0, 50 µM 2HF) was 0.9. The “MEKK15 band intensity ratio to control (normalized against β-Actin)” value (B16-F0 cells; B16F0, 50 µM 2HF) was 1.0, the “N-terminal cleaved PARP~24kDa band intensity ratio to control (normalized against β-Actin)” value (B16-F0 cells; B16F0, 50 µM 2HF) was 0.9 and the “PARP-1 band intensity ratio to control (normalized against β-Actin)” value (B16-F0 cells; B16F0, 50 µM 2HF) was 0.9. The “PKC α band intensity ratio to control (normalized against β-Actin)” value (B16-F0 cells; B16F0, 50 µM 2HF) was 0.6, the “Procaspase 3 band intensity ratio to control (normalized against β-Actin)” value (B16-F0 cells; B16F0, 50 µM 2HF) was 1.0 and the “RAL BP-1 band intensity ratio to control (normalized against β-Actin)” value (B16-F0 cells; B16F0, 50 µM 2HF) was 0.9. For the same compound, the “Raf-1 band intensity ratio to control (normalized against β-Actin)” value (B16-F0 cells; B16F0, 50 µM 2HF) was 0.2, the “TNF-α band intensity ratio to control (normalized against β-Actin)” value (B16-F0 cells; B16F0, 50 µM 2HF) was 0.4 and the “p-MEK-1 band intensity ratio to control (normalized against β-Actin)” value (B16-F0 cells; B16F0, 50 µM 2HF) was 0.8. The “p-PDGFR-β band intensity ratio to control (normalized against β-Actin)” value (B16-F0 cells; B16F0, 50 µM 2HF) was 0.3, the “Active caspase 3 band intensity ratio to control (normalized against β-Actin)” value (B16-F0 cells; B16F0, 100 µM 2HF) was 0.1 and the “MEKK15 band intensity ratio to control (normalized against β-Actin)” value (B16-F0 cells; B16F0, 100 µM 2HF) was 4.7. For the same compound, the “N-terminal cleaved PARP~24kDa band intensity ratio to control (normalized against β-Actin)” value (B16-F0 cells; B16F0, 100 µM 2HF) was 0.1, the “PARP-1 band intensity ratio to control (normalized against β-Actin)” value (B16-F0 cells; B16F0, 100 µM 2HF) was 0.8 and the “PKC α band intensity ratio to control (normalized against β-Actin)” value (B16-F0 cells; B16F0, 100 µM 2HF) was 0.2. For the same compound, the “Procaspase 3 band intensity ratio to control (normalized against β-Actin)” value (B16-F0 cells; B16F0, 100 µM 2HF) was 0.5, the “RAL BP-1 band intensity ratio to control (normalized against β-Actin)” value (B16-F0 cells; B16F0, 100 µM 2HF) was 0.3 and the “p-MEK-1 band intensity ratio to control (normalized against β-Actin)” value (B16-F0 cells; B16F0, 100 µM 2HF) was 0.8.
